From the CheMixHub viscosity set
± gives the uncertainty stated by the source.

Experiment: xn = mol fraction of the nth substance listed

CC(N)CN (stereo not given) + O
viscosity [mPa·s], 101 kPa
Settings	298.15 K	303.15 K	308.15 K	313.15 K	318.15 K	323.15 K
x1 = 0.0997	6.527 ± 0.086	5.479 ± 0.078	4.625 ± 0.067	3.878 ± 0.057	3.237 ± 0.051	–
x1 = 0.0998	–	3.004 ± 0.019	2.529 ± 0.016	2.154 ± 0.014	1.855 ± 0.012	1.625 ± 0.01
x1 = 0.1997	–	6.596 ± 0.04	5.258 ± 0.034	4.287 ± 0.028	3.559 ± 0.023	2.977 ± 0.02
x1 = 0.2002	9.458 ± 0.12	7.901 ± 0.1	6.605 ± 0.091	5.522 ± 0.079	4.611 ± 0.07	–
x1 = 0.2522	–	7.702 ± 0.048	6.095 ± 0.04	4.913 ± 0.033	4.041 ± 0.027	3.365 ± 0.023
x1 = 0.2992	–	8.043 ± 0.051	6.383 ± 0.043	5.139 ± 0.035	4.211 ± 0.029	3.495 ± 0.024
x1 = 0.2998	10.24 ± 0.13	8.542 ± 0.11	7.121 ± 0.098	5.956 ± 0.085	4.993 ± 0.076	–
x1 = 0.3412	–	7.793 ± 0.052	6.196 ± 0.043	5.033 ± 0.035	4.11 ± 0.029	3.452 ± 0.025
x1 = 0.3995	9.546 ± 0.13	7.939 ± 0.11	6.633 ± 0.094	5.555 ± 0.082	4.676 ± 0.072	–
x1 = 0.4012	–	7.095 ± 0.05	5.678 ± 0.041	4.69 ± 0.03	3.823 ± 0.028	3.204 ± 0.024
x1 = 0.4957	8.037 ± 0.11	6.649 ± 0.097	5.591 ± 0.084	4.69 ± 0.072	3.961 ± 0.062	–
x1 = 0.5022	–	5.538 ± 0.043	4.504 ± 0.036	3.734 ± 0.03	3.14 ± 0.025	2.671 ± 0.021
x1 = 0.6011	–	3.921 ± 0.034	3.288 ± 0.028	2.792 ± 0.024	2.395 ± 0.021	2.08 ± 0.018
x1 = 0.6024	6.005 ± 0.091	4.915 ± 0.078	4.178 ± 0.066	3.516 ± 0.056	2.983 ± 0.048	–
x1 = 0.6913	–	2.844 ± 0.026	2.443 ± 0.023	2.113 ± 0.02	1.85 ± 0.017	1.632 ± 0.015
x1 = 0.694	4.35 ± 0.071	3.566 ± 0.058	3.067 ± 0.05	2.603 ± 0.043	2.23 ± 0.037	–
x1 = 0.7912	–	2.119 ± 0.021	1.854 ± 0.019	1.634 ± 0.017	1.45 ± 0.015	1.302 ± 0.013
x1 = 0.7949	2.882 ± 0.049	2.425 ± 0.041	2.098 ± 0.036	1.814 ± 0.031	1.585 ± 0.027	–
x1 = 0.8901	1.975 ± 0.035	1.752 ± 0.031	1.508 ± 0.027	1.337 ± 0.024	1.199 ± 0.022	–
x1 = 0.8998	–	1.689 ± 0.018	1.501 ± 0.017	1.312 ± 0.014	1.216 ± 0.013	1.101 ± 0.012

CC(N)CN (stereo not given) + OCCO
viscosity [mPa·s], 101.33 kPa
Settings	298.15 K	303.15 K	308.15 K	313.15 K	318.15 K
x2 = 0.0513	1.89 ± 0.06	1.66 ± 0.05	1.4 ± 0.05	1.33 ± 0.04	1.23 ± 0.04
x2 = 0.1024	2.46 ± 0.08	2.17 ± 0.07	1.8 ± 0.06	1.69 ± 0.05	1.53 ± 0.05
x2 = 0.1534	3.22 ± 0.1	2.9 ± 0.09	2.34 ± 0.08	2.19 ± 0.07	1.98 ± 0.06
x2 = 0.2043	4.66 ± 0.15	3.91 ± 0.13	3.1 ± 0.1	2.84 ± 0.09	2.51 ± 0.08
x2 = 0.255	6.47 ± 0.21	5.31 ± 0.18	4.14 ± 0.14	3.73 ± 0.12	3.23 ± 0.11
x2 = 0.3056	9.02 ± 0.3	7.28 ± 0.24	5.57 ± 0.19	4.91 ± 0.16	4.28 ± 0.14
x2 = 0.356	12.47 ± 0.42	9.89 ± 0.33	7.43 ± 0.25	6.42 ± 0.21	5.39 ± 0.18
x2 = 0.4064	17.12 ± 0.58	13.17 ± 0.45	9.78 ± 0.33	8.33 ± 0.28	6.89 ± 0.23
x2 = 0.4566	22.35 ± 0.75	17 ± 0.57	12.38 ± 0.41	10.39 ± 0.35	8.36 ± 0.28
x2 = 0.5066	27.55 ± 0.92	20.91 ± 0.69	15.09 ± 0.5	12.54 ± 0.41	10 ± 0.33
x2 = 0.5565	32.68 ± 1.1	24.47 ± 0.79	17.48 ± 0.57	14.47 ± 0.47	11.46 ± 0.37
x2 = 0.6063	36.17 ± 1.2	26.99 ± 0.87	19.26 ± 0.62	15.91 ± 0.51	12.62 ± 0.41
x2 = 0.6556	37.44 ± 1.2	28.04 ± 0.9	20.15 ± 0.64	16.67 ± 0.53	13.25 ± 0.42
x2 = 0.7055	36.53 ± 1.2	27.76 ± 0.89	20.09 ± 0.64	16.66 ± 0.53	13.32 ± 0.43
x2 = 0.7549	34.46 ± 1.1	26.24 ± 0.84	19.07 ± 0.61	15.99 ± 0.51	12.78 ± 0.41
x2 = 0.8042	32.78 ± 1.1	24.03 ± 0.77	17.71 ± 0.57	14.9 ± 0.48	11.97 ± 0.38
x2 = 0.8533	28.17 ± 0.9	21.54 ± 0.69	15.99 ± 0.51	13.67 ± 0.44	11.17 ± 0.36
x2 = 0.9024	24.94 ± 0.8	18.68 ± 0.6	14.07 ± 0.45	12.16 ± 0.39	10 ± 0.32
x2 = 0.9512	20.88 ± 0.67	16.21 ± 0.52	12.23 ± 0.39	10.67 ± 0.34	8.83 ± 0.28
